From ChEMBL document CHEMBL4699544, “Design and synthesis of Coenzyme A analogues as Aurora kinase A inhibitors: An exploration of the roles of the pyrophosphate and pantetheine moieties” (Bioorg Med Chem, 2020)

Target: T1, Aurora kinase A (Homo sapiens, UniProt O14965)
T1 sequence (O14965 whole entry): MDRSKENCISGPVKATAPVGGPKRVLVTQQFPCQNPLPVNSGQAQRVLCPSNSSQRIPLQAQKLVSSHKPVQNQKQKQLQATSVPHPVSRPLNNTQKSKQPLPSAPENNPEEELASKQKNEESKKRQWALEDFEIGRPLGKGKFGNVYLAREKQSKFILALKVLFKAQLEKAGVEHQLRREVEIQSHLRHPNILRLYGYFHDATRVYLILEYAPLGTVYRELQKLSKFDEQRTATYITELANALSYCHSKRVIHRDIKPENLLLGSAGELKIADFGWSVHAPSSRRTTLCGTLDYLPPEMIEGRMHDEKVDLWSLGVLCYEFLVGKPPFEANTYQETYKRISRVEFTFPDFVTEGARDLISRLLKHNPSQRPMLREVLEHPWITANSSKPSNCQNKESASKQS
Assay: Inhibition of recombinant Aurora A (unknown origin) using myelin basic protein as substrate incubated for 30 mins in presence of DTT by [gamma-33P]-ATP based radioactive filter binding assay

Structure (SMILES)	IC50 [µM]
CC(C)(COC(=O)CCC(=O)OC[C@@H]1O[C@H](n2cnc3c(N)ncnc32)[C@@H](O)[C@H]1O)[C@@H](O)C(=O)NCCC(=O)NCCS	117

Target: T1, Aurora kinase A
Assay: Inhibition of recombinant Aurora A (unknown origin) using myelin basic protein as substrate incubated for 30 mins in presence or absence of DTT by [gamma-33P]-ATP based radioactive filter binding assay

Structure (SMILES)	IC50 [µM]
CCCNC(=O)CCNC(=O)[C@H](O)C(C)(C)COC(=O)CC(=O)OC[C@@H]1O[C@H](n2cnc3c(N)ncnc32)[C@@H](O)[C@H]1O	1300
CCCNC(=O)CCNC(=O)[C@H](O)C(C)(C)COC(=O)CCCC(=O)OC[C@@H]1O[C@H](n2cnc3c(N)ncnc32)[C@@H](O)[C@H]1O	542
CCNC(=O)CCNC(=O)[C@@H](O)C(C)(C)COP(=O)(O)OP(=O)(O)OC[C@@H]1O[C@H](n2cnc3c(N)ncnc32)[C@@H](O)[C@H]1OP(=O)(O)O	160
CC(C)(C)COC(=O)CCC(=O)OC[C@@H]1O[C@H](n2cnc3c(N)ncnc32)[C@@H](O)[C@H]1O	430
CC(C)(COP(=O)(O)OP(=O)(O)OC[C@@H]1O[C@H](n2cnc3c(N)ncnc32)[C@@H](O)[C@H]1O)[C@H](O)C(=O)NCCC(=O)NCCS	17
CNC(=O)[C@H](O)C(C)(C)COC(=O)CCC(=O)OC[C@@H]1O[C@H](n2cnc3c(N)ncnc32)[C@@H](O)[C@H]1O	1300
Nc1ncnc2c1ncn2[C@H]1O[C@@H](COC(=O)CC(=O)O)[C@H](O)[C@@H]1O	420
CC(C)(COP(=O)(O)OP(=O)(O)OC[C@@H]1O[C@H](n2cnc3c(N)ncnc32)[C@@H](O)[C@H]1OP(=O)(O)O)[C@H](O)C(=O)NCCC(=O)NCCS	5
Nc1ncnc2c1ncn2[C@H]1O[C@@H](CNC(=O)CC(=O)O)[C@H](O)[C@@H]1O	910
CCCNC(=O)CCNC(=O)[C@H](O)C(C)(C)COC(=O)CCC(=O)OC[C@@H]1O[C@H](n2cnc3c(N)ncnc32)[C@@H](O)[C@H]1O	497
CC(C)(COC(=O)CCC(=O)OC[C@@H]1O[C@H](n2cnc3c(N)ncnc32)[C@@H](O)[C@H]1O)[C@@H](O)C(=O)NCCC(=O)NCCS	83
CCCNC(=O)CCNC(=O)[C@H](O)C(C)(C)COC(=O)CC(=O)NC[C@@H]1O[C@H](n2cnc3c(N)ncnc32)[C@@H](O)[C@H]1O	1100
CNC(=O)CCNC(=O)[C@H](O)C(C)(C)COC(=O)CCC(=O)OC[C@@H]1O[C@H](n2cnc3c(N)ncnc32)[C@@H](O)[C@H]1O	1400

Target: T1, Aurora kinase A
Assay: Inhibition of recombinant Aurora A (unknown origin) using myelin basic protein as substrate incubated for 30 mins in presence of DTT by [gamma-33P]-ATP based radioactive filter binding assay

Structure (SMILES)	IC50 [µM]
CC(C)(COC(=O)CCC(=O)OC[C@@H]1O[C@H](n2cnc3c(N)ncnc32)[C@@H](O)[C@H]1O)[C@@H](O)C(=O)NCCC(=O)NCCS	117
